For one test, the target named is TYK2 (Homo sapiens (Human), UniProt P29597). The test can be described thus: JAK Caliper Enzyme Assay at 1 mM ATP (TYK2). Conditions: Caliper assay at 1 mM ATP. The test is classed as biochemical.
Another test addresses JAK2 (Homo sapiens (Human), UniProt O60674). The experiment in a line: JAK Caliper Enzyme Assay at 1 mM ATP (JAK2). It is filed as biochemical. Conditions: Caliper assay at 1 mM ATP.
The next test addresses JAK1 (Homo sapiens (Human), UniProt P23458). The test can be described thus: JAK Caliper Enzyme Assay at 1 mM ATP (JAK1). It is filed as biochemical. The conditions noted are these: Caliper assay at 1 mM ATP.
In another test the target is JAK3 (Homo sapiens (Human), UniProt P52333). The experiment in a line: JAK Caliper Enzyme Assay at 1 mM ATP (JAK3). The test is classed as biochemical. Conditions: Caliper assay at 1 mM ATP.
JAK3, sequence (P52333 whole entry): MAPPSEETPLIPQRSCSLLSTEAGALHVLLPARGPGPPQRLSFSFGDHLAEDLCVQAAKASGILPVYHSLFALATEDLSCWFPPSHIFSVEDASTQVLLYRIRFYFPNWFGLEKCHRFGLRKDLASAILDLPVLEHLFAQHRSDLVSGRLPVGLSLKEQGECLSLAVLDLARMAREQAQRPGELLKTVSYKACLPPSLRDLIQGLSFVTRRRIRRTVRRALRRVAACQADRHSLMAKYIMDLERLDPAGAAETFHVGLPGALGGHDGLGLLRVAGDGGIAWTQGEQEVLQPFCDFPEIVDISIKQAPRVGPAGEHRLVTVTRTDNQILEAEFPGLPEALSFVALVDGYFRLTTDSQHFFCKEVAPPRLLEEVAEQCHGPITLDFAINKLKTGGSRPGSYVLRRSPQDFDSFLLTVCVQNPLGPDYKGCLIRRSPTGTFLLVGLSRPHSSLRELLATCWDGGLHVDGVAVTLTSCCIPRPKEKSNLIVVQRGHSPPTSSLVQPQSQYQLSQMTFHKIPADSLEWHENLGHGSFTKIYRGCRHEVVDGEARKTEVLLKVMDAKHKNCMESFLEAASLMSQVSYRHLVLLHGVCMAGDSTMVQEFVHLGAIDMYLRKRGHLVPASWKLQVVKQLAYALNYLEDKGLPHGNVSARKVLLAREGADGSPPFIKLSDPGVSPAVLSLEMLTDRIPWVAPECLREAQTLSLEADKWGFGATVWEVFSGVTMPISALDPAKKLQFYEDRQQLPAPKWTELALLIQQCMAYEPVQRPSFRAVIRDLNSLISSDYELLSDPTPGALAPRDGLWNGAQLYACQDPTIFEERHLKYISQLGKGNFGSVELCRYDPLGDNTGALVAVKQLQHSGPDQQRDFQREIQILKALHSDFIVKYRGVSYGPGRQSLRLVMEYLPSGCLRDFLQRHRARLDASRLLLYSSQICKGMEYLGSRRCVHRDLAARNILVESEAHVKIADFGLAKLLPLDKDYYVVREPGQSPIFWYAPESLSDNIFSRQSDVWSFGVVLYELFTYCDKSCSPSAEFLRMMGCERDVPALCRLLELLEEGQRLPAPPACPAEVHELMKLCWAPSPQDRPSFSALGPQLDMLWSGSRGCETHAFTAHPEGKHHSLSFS
Test [1] relates to rhIFNγ stimulated STAT-3 phosphorylation in the A549 human epithelial cell line. The test can be described thus: A549 Cell Assay: Inhibition of pSTAT3. The test is classed as cell-based. Conditions: A549 cells. A digest of the protocol:
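A549 cells cultured 18 h were preincubated 1 h at 37° C with compound (0.3 nM to 10 μM, 0.1% DMSO) in DMEM with 0.2% BSA, then stimulated with 20 ng/mL rhIFNγ for 30 min. pSTAT3 Tyr705 in the lysates was measured by MSD immunoassay and expressed as percent inhibition.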

This is an account of results in patent US10022376B2 (Pfizer Inc., priority 2014, dated 2018).

Counter-ions that a name gives are not always drawn.

TYK2, sequence (P29597 whole entry): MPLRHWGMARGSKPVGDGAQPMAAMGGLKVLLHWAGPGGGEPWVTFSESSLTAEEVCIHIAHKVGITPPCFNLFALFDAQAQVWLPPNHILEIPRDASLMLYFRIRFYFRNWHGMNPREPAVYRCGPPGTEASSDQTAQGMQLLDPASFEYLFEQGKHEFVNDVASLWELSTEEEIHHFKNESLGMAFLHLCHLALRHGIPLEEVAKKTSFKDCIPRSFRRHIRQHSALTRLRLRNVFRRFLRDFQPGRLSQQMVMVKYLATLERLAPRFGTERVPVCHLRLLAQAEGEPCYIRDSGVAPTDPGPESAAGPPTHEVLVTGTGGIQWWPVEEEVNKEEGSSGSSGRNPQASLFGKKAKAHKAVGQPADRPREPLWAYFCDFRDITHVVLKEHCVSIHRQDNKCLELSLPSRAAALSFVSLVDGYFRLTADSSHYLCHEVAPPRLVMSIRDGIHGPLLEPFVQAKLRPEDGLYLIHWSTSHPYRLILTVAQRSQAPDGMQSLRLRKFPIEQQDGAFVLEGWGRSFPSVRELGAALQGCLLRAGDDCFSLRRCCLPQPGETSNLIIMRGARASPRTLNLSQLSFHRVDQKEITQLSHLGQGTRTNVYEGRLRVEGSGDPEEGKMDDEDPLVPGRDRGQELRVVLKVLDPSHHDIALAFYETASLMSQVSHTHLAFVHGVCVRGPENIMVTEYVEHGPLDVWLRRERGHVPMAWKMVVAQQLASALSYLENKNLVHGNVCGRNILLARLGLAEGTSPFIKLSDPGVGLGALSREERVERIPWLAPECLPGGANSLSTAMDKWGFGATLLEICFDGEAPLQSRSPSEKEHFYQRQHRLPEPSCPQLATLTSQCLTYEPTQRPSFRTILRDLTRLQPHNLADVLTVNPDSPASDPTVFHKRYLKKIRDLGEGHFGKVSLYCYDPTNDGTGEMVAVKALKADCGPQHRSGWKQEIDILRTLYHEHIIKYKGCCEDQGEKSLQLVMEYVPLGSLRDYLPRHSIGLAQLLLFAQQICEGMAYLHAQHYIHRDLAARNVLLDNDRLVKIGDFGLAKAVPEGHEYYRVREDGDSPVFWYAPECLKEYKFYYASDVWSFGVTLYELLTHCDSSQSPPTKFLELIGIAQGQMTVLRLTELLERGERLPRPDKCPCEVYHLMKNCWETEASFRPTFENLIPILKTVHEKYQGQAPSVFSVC
JAK2, sequence (O60674 whole entry): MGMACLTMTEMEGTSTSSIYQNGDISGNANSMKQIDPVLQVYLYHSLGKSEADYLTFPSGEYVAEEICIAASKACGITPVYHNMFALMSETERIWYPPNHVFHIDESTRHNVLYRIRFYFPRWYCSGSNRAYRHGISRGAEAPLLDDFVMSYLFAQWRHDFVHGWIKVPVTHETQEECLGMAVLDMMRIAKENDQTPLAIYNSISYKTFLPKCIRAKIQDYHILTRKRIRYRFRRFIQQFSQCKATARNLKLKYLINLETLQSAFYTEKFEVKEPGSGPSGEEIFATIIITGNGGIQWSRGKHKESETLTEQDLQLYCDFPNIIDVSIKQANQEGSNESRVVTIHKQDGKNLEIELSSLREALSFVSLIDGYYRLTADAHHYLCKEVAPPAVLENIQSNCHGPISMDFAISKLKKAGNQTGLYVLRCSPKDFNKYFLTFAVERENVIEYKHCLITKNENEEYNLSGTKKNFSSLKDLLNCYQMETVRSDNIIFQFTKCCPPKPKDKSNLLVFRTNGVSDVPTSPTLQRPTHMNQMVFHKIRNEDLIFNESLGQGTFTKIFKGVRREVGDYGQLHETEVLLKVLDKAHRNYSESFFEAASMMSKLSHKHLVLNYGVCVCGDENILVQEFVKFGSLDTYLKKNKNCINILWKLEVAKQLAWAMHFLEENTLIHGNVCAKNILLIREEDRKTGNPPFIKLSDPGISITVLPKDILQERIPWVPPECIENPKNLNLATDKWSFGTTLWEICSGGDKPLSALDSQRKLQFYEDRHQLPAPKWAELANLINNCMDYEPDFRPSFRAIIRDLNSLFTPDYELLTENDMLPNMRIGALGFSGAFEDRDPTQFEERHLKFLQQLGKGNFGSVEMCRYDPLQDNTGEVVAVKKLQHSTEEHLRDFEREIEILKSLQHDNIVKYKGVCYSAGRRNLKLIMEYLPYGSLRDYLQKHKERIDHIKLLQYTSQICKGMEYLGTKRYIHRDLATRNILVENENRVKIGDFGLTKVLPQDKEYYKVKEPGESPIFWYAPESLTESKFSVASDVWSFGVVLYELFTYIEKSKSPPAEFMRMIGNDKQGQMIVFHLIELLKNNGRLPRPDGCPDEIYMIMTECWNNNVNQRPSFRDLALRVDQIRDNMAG
JAK1, sequence (P23458 whole entry): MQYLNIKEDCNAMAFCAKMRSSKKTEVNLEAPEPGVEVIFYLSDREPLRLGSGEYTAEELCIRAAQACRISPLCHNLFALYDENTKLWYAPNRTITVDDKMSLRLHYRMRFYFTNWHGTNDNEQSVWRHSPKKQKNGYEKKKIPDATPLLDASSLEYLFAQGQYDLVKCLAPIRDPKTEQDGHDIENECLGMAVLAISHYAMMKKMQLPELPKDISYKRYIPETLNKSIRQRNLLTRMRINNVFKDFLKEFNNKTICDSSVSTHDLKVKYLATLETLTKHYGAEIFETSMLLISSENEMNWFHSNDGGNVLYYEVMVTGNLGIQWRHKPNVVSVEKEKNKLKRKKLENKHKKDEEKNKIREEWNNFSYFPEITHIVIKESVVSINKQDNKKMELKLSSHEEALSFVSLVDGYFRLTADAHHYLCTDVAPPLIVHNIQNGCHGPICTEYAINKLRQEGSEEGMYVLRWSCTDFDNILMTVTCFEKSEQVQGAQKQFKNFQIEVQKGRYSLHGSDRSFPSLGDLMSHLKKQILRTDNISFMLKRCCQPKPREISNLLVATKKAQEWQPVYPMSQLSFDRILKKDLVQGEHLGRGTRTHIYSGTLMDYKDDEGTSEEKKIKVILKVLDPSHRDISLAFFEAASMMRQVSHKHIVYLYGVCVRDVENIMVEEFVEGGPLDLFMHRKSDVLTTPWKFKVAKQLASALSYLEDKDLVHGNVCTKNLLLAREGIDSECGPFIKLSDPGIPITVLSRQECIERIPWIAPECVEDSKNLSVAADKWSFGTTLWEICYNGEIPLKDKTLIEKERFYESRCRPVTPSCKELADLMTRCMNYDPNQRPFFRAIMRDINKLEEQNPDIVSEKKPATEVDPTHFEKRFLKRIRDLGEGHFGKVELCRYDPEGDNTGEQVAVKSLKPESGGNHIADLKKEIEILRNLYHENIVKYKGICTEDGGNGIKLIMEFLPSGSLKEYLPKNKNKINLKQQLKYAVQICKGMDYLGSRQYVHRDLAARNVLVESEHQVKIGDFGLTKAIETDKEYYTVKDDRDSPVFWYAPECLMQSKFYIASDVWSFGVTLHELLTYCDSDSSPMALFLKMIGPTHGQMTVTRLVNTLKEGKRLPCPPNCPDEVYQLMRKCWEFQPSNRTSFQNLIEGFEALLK

Turning to `CCc1cc(O)ccc1-c1cc2[nH]ncc2c(N2CCC(S(=O)(=O)N(C)C)C2)n1` (racemic) [Example 126, 1-[6-(2-ethyl-4-hydroxyphenyl)-1H-pyrazolo[4,3-c]pyridin-4-yl]-N, N-dimethylpyrrolidine-3-sulfonamide (racemic)], the IC50 (as a rule, the concentration at which inhibition is half-maximal) at TYK2 is 668 nM; on JAK2, 23.5 nM; against JAK1, 8.1 nM; on JAK3 it was 35.1 nM.
As for `CNC(=O)c1n[nH]c2cc(-c3cc(F)c(O)cc3CC(F)(F)F)nc(NCc3c(F)cccc3N(C)S(C)(=O)=O)c12` [Example 18, 6-[5-fluoro-4-hydroxy-2-(2,2,2-trifluoroethyl)phenyl]-4-({2-fluoro-6-[methyl(methylsulfonyl)amino]benzyl}amino)-N-methyl-1H-pyrazolo[4,3-c]pyridine-3-carboxamide], the IC50 against TYK2 stood at 31 nM; in test [1] (Homo sapiens), 97 nM; against JAK1, 4 nM; against JAK3 it was 73 nM.
On to `CCNC(=O)c1n[nH]c2cc(-c3cc(F)c(O)cc3CC(F)(F)F)nc(NCc3nccnc3N(CC)S(C)(=O)=O)c12` [Example 46, N-ethyl-4-[({3-[ethyl(methylsulfonyl)amino]pyrazin-2-yl}methyl)amino]-6-[5-fluoro-4-hydroxy-2-(2,2,2-trifluoroethyl)phenyl]-1H-pyrazolo[4,3-c]pyridine-3-carboxamide], for which the half-inhibitory concentration (IC50) against JAK1 worked out at 32.9 nM; on JAK3, 179 nM.
For the compound `CNC(=O)c1n[nH]c2cc(-c3cc(F)c(O)cc3CC(F)(F)F)nc(NCc3cc(O)ccc3N(C)S(C)(=O)=O)c12` [Example 50], the IC50 on TYK2 was found to be 10.5 nM; in test [1], 321 nM; at JAK2, 10.7 nM; at JAK3 it was 47.4 nM.
In the case of `CCc1cc(O)ccc1-c1cc2[nH]ncc2c(N2CCc3c(cccc3C(=O)NCc3ccccc3)C2)n1` [Example 117, N-benzyl-2-[6-(2-ethyl-4-hydroxyphenyl)-1H-pyrazolo[4,3-c]pyridin-4-yl]-1,2,3,4-tetrahydroisoquinoline-5-carboxamide formate], the IC50 worked out at 425 nM against TYK2 and 41.6 nM against JAK3.
In the case of `CCc1cc(O)c(F)cc1-c1cc2[nH]ncc2c(N(CCc2ccc(OC)c(OC)c2)Cc2ccccc2N(C)S(C)(=O)=O)n1` [Example 129, N-[2-({[2-(3,4-dimethoxyphenyl)ethyl][6-(2-ethyl-5-fluoro-4-hydroxyphenyl)-1H-pyrazolo[4,3-c]pyridin-4-yl]amino}methyl)phenyl]-N-methylmethanesulfonamide hydrochloride], the IC50 in test [1] (Homo sapiens) was 62.4 nM.
With `CCc1cc(O)c(F)cc1-c1cc2[nH]ncc2c(N(CCc2ccc(NS(C)(=O)=O)cc2)Cc2ccccc2N(C)S(C)(=O)=O)n1` [Example 130, N-[2-({[6-(2-ethyl-5-fluoro-4-hydroxyphenyl)-1H-pyrazolo[4,3-c]pyridin-4-yl](2-{4-[(methylsulfonyl)amino]phenyl}ethyl)amino}methyl)phenyl]-N-methylmethanesulfonamide hydrochloride], the IC50 on TYK2 is 194 nM; in test [1] (Homo sapiens) it was 729 nM; on JAK1 it was 43.8 nM; against JAK3, 1360 nM.
In the case of `CCc1cc(O)c(F)cc1-c1cc2[nH]ncc2c(NCc2ccccc2N(C)S(=O)(=O)CC)n1` [Example 135, N-[2-({[6-(2-ethyl-5-fluoro-4-hydroxyphenyl)-1H-pyrazolo[4,3-c]pyridin-4-yl]amino}methyl)-phenyl]-N-methylethanesulfonamide hydrochloride], in test [1] (Homo sapiens), the IC50 turned out to be 3.3 nM.
Take `CCc1cc(O)c(F)cc1-c1cc2[nH]ncc2c(NCc2ccccc2N(CC)S(=O)(=O)CC)n1` [Example 136, N-ethyl-N-[2-({[6-(2-ethyl-5-fluoro-4-hydroxyphenyl)-1H-pyrazolo[4,3-c]pyridin-4-yl]amino}-methyl)phenyl]ethanesulfonamide hydrochloride]: the concentration for half-maximal inhibition (IC50) in test [1] (Homo sapiens) worked out at 13.3 nM.
For `CCc1cc(O)c(F)cc1-c1cc2[nH]ncc2c(NCc2ccccc2N(CC)S(C)(=O)=O)n1` [Example 138, N-ethyl-N-[2-({[6-(2-ethyl-5-fluoro-4-hydroxyphenyl)-1H-pyrazolo[4,3-c]pyridin-4-yl]amino}-methyl)phenyl]methanesulfonamide], the IC50 was 4.8 nM on TYK2, 5.4 nM in test [1] (Homo sapiens), 2.6 nM against JAK2 and 14.2 nM at JAK3.
The compound `CCCCN(c1ccccc1CNc1nc(-c2cc(F)c(O)cc2CC)cc2[nH]ncc12)S(C)(=O)=O` [Example 139, N-butyl-N-[2-({[6-(2-ethyl-5-fluoro-4-hydroxyphenyl)-1H-pyrazolo[4,3-c]pyridin-4-yl]amino}-methyl)phenyl]methanesulfonamide] displayed a half-inhibitory concentration (IC50) at JAK1 of 8.5 nM.
Regarding `CN(c1ccccc1CNc1nc(-c2cc(F)c(O)cc2CC(F)(F)F)cc2[nH]ncc12)S(C)(=O)=O` [Example 148, N-{2-[({6-[5-Fluoro-4-hydroxy-2-(2,2,2-trifluoroethyl)phenyl]-1H-pyrazolo[4,3-c]pyridin-4-yl}amino)methyl]phenyl}-N-methylmethanesulfonamide], the concentration for half-maximal inhibition (IC50) in test [1] (Homo sapiens) is 14.9 nM.
In test [1] (Homo sapiens), `Oc1cc(CC(F)(F)F)c(-c2nc(NCC3CC3)c3cn[nH]c3n2)cc1F` [Example 151, 4-{4-[(cyclopropylmethyl)amino]-1H-pyrazolo[3,4-d]pyrimidin-6-yl}-2-fluoro-5-(2,2,2-trifluoroethyl)phenol] gave a half-maximal inhibitory concentration (IC50) of 133 nM.
The same measure, in the same setting: next, `Oc1cc(CC(F)(F)F)c(-c2nc(NCCC3CC3)c3cn[nH]c3n2)cc1F` [Example 152, 4-{4-[(2-cyclopropylethyl)amino]-1H-pyrazolo[3,4-d]pyrimidin-6-yl}-2-fluoro-5-(2,2,2-trifluoroethyl)phenol]: 133 nM.
Take `CCc1cc(O)c(F)cc1-c1nc(NCc2ccccc2N(C)S(C)(=O)=O)c2cn[nH]c2n1` [Example 155, N-[2-({[6-(2-Ethyl-5-fluoro-4-hydroxyphenyl-1H-pyrazolo[3,4-d]pyrimidin-4-yl]amino}methyl)phenyl]-N-methylmethanesulfonamide hydrochloride]: in test [1], the IC50 amounted to 30.1 nM.
On the same count and under the same terms, the value for `CCc1cc(O)cc(C)c1-c1cc2[nH]ncc2c(NCc2ccccc2N(C)S(C)(=O)=O)n1` [Example 156] was 72.4 nM.
As to `CCc1cc(O)c(F)cc1-c1cc2[nH]nc(-c3ncc[nH]3)c2c(NCc2ccccc2N(C)S(C)(=O)=O)n1` [Example 157, N-[2-({[6-(2-Ethyl-5-fluoro-4-hydroxyphenyl)-3-(1H-imidazol-2-yl)-1H-pyrazolo[4,3-c]pyridin-4-yl]amino}methyl)phenyl]-N-methylmethanesulfonamide], in test [1] (Homo sapiens), the half-maximal inhibitory concentration (IC50) worked out at 26.2 nM.
`CCc1cc(O)c(F)cc1-c1cc2[nH]nc(-c3nc(C)c(C)[nH]3)c2c(NCc2ccccc2N(C)S(C)(=O)=O)n1` [Example 158] came in with a half-inhibitory concentration (IC50) in test [1] of 31.3 nM.
With `CCc1cc(O)c(F)cc1-c1cc2[nH]nc(-c3nc(C)c[nH]3)c2c(NCc2ccccc2N(C)S(C)(=O)=O)n1` [Example 159, N-[2-({[6-(2-Ethyl-5-fluoro-4-hydroxyphenyl)-3-(4-methyl-1H-imidazol-2-yl)-1H-pyrazolo[4,3-c]pyridin-4-yl]amino}methyl)phenyl]-N-methylmethanesulfonamide], the IC50 in test [1] (Homo sapiens) came to 18.7 nM.
On to `CCc1cc(O)c(F)cc1-c1cc2[nH]nc(-n3cccn3)c2c(NCc2ccccc2N(C)S(C)(=O)=O)n1` [Example 162, N-[2-({[6-(2-Ethyl-5-fluoro-4-hydroxyphenyl)-3-(1H-pyrazol-1-yl)-1H-pyrazolo[4,3-c]pyridin-4-yl]amino}methyl)phenyl]-N-methylmethanesulfonamide], for which, in test [1] (Homo sapiens), half-maximal inhibition (IC50) was put at 20 nM.
Same read-out and setting: the value for `CN(c1ccccc1CNc1nc(-c2cc(F)c(O)cc2CC(F)(F)F)cc2[nH]nc(-n3cccn3)c12)S(C)(=O)=O` [Example 163, N-{2-[({6-[5-Fluoro-4-hydroxy-2-(2,2,2-trifluoroethyl)phenyl]-3-(1H-pyrazol-1-yl)-1H-pyrazolo[4,3-c]pyridin-4-yl}amino)methyl]phenyl}-N-methylmethanesulfonamide] was 98.6 nM.
Still for that read-out and setting: the value for `CN(c1ccc(O)cc1CNc1nc(-c2cc(F)c(O)cc2CC(F)(F)F)nc2[nH]nc(-c3nnc(C4CCN(C(N)=O)CC4)[nH]3)c12)S(C)(=O)=O` [Example 167, 4-(5-{6-[5-Fluoro-4-hydroxy-2-(2,2,2-trifluoroethyl)phenyl]-4-({5-hydroxy-2-[methyl(methylsulfonyl)amino]benzyl}amino)-1H-pyrazolo[3,4-d]pyrimidin-3-yl}-4H-1,2,4-triazol-3-yl)piperidine-1-carboxamide] was above 10000 nM.
With `CN(c1ccccc1CNc1nc(-c2cc(F)c(O)cc2CC(F)(F)F)nc2[nH]nc(-c3nnc(C4CCN(C(=O)CN5CCCC5)CC4)[nH]3)c12)S(C)(=O)=O` [Example 168, N-(2-{[(6-[5-Fluoro-4-hydroxy-2-(2,2,2-trifluoroethyl)phenyl]-3-{5-[1-(pyrrolidin-1-ylacetyl)piperidin-4-yl]-4H-1,2,4-triazol-3-yl}-1H-pyrazolo[3,4-d]pyrimidin-4-yl)amino]methyl}phenyl)-N-methylmethanesulfonamide], the IC50 in test [1] (Homo sapiens) turned out to be 1330 nM.
Take `CC(CO)CNc1nc(-c2cc(F)c(O)cc2CC(F)(F)F)nc2[nH]nc(-c3nc4c([nH]3)CCN(Cc3ccccc3)C4)c12` (centres unmarked) [Example 173, 4-(3-(5-Benzyl-4,5,6,7-tetrahydro-1H-imidazo[4,5-c]pyridin-2-yl)-4-((3-hydroxy-2-methylpropyl)amino)-1H-pyrazolo[3,4-d]pyrimidin-6-yl)-2-fluoro-5-(2,2,2-trifluoroethyl)phenol]: half-maximal inhibition in test [1] (Homo sapiens) (IC50) required 220 nM.
